The text below walks through data of paper PMC11143257, “Atomistic mechanism of coupling between cytosolic sensor domain and selectivity filter in TREK K2P channels” (Nature Communications, 2024).

“Also recorded” adds a separate entry of the source. Structures can show the parent of a compound that is named as a salt.

Assay [1] deals with T1, TREK-2* (Homo sapiens, UniProt P57789).
T1 sequence (P57789 67-355 isoform P57789-4): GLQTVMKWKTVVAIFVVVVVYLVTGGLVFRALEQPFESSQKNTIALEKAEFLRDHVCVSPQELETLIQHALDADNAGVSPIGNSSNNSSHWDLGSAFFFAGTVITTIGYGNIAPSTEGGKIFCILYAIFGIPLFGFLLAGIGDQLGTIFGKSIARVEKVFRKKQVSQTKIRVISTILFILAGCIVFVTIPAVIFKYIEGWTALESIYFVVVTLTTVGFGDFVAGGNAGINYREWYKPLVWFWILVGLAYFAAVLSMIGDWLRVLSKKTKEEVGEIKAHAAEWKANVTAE
The assay is described as follows: MTS probe modification, inside-out patch-clamp. The format is cell-based. The arrangement: was truncated from WT and includes amino acids 67 - 355; expressed in transfected cells; host or cells: Xenopus laevis oocytes (cRNA injection), excised inside-out patches. The conditions noted are these: 100 µM decyl-MTS for at least 30 s, symmetrical K+, pH 7.4, +40 mV. How it is done: First, we measured WT TREK-1, WT TRAAK and TREK-2^* channels without modifiable cysteine residues as references. Upon application of 100 µM of decyl-MTS for at least 30 s to the respective channel in excised membrane patches, no change in current amplitudes was recognized (Fig. 2a and Supplementary Fig. 2a, b). Note, that patch integrity and channel regulation were tested with either 1 mM tetra-pentyl-ammonium (TPenA) and a short pHi activation step. Next, we conducted systematic cysteine scanning mutagenesis of the entire pCt and examined the effect of charged and aliphatic MTS probes. […] Remarkably, all hit residues face toward the inner leaflet of the lipid bilayer (Fig. 2b, inlay).
In this study, the coding sequences of human K2P2.1 TREK-1 (Genbank accession number: NM_172042), rat K2P2.1 TREK-1 (NM_172041.2), human K2P10.1 TREK-2 (NM_021161) and human K2P4.1 TRAAK (AF247042) were used. […]
(§1) Xenopus laevis oocytes were surgically removed from anesthetized adult females, treated with type II collagenase (Sigma-Aldrich/Merck, Germany) and manually defolliculated. […] Currents were recorded with an EPC10 amplifier (HEKA electronics, Germany) and sampled at 10 kHz or higher and filtered with 3 kHz (-3 dB) or higher as appropriate for the sampling rate. […]

The subject of another assay is WT TREK-1. Description: MTS probe modification, inside-out patch-clamp. The format is cell-based, human. The conditions noted are these: 100 µM decyl-MTS for at least 30 s, excised patches, symmetric K+, pH 7.4, +40 mV. How it is done:
First, we measured WT TREK-1, WT TRAAK and TREK-2^* channels without modifiable cysteine residues as references. […] Note, that patch integrity and channel regulation were tested with either 1 mM tetra-pentyl-ammonium (TPenA) and a short pHi activation step. Next, we conducted systematic cysteine scanning mutagenesis of the entire pCt and examined the effect of charged and aliphatic MTS probes.
as §1
The fold current increase (fold activation) of a ligand (decyl-MTS) was calculated from the following equation:1 FoldactivationFA=Iactivated/Ibasal with Iactivated represents the stable current level in the presence of 100 µM decyl-MTS and Ibasal the measured current before application of the MTS probe.
In general terms: Patch clamp records ionic current or voltage across a cell membrane.

In assay [2] the target is T1, TREK-2*. The assay is described as follows: NFx inhibition, inside-out patch-clamp. The class given is cell-based. The arrangement: was truncated from WT and includes amino acids 67 - 355; expressed in transfected cells; host or cells: Xenopus laevis oocytes (cRNA injection, pFAW vector). The conditions noted are these: TREK-2* (amino acids 67 - 355), peer review file.
Text: In this study, the coding sequences of human K2P2.1 TREK-1 (Genbank accession number: NM_172042), rat K2P2.1 TREK-1 (NM_172041.2), human K2P10.1 TREK-2 (NM_021161) and human K2P4.1 TRAAK (AF247042) were used. For K^+ channel constructs expressed in Xenopus laevis oocytes the respective K^+ channel subtype coding sequences were subcloned into the dual-purpose vector pFAW. The TREK-2 construct with the extended pCt (TREK-2^*) was truncated from WT and includes amino acids 67 - 355. All mutant channels (point mutations) were obtained by site-directed mutagenesis with custom oligonucleotides. Vector DNA was linearized with NheI or MluI and cRNA synthesized in vitro using the SP6 or T7 AmpliCap Max High Yield Message Maker Kit (Cellscript, USA) and stored at −20 °C (for frequent use) and −80 °C (for long term storage).
as §1

Turning to `CCCCCCCCCCSS(C)(=O)=O` [decyl-MTS, Decyl-MethaneThioSulfonate], the “effect on current amplitude” value at TREK-2* [1] is listed as “no change; also recorded: no effect”; in the assay with WT TREK-1 it was “no change”.

For `NCCC(Oc1ccc(C(F)(F)F)cc1)c1ccccc1` (stereo not drawn) [NFx, Norfluoxetine hydrochloride], 3.2 ± 1 µM corresponded to half-maximal inhibition at TREK-2* [2] (IC50).
